Results published in patent US20240132484A1, “BROAD SPECTRUM ANTIVIRAL COMPOUNDS TARGETING THE SKI COMPLEX” (priority 2020, published 2024).
Several values for one entry are separate records, joined by “and”; a condition that tells them apart may be missing. Equal entries are not always repeated. Where two headings read alike, the source gives them in different places.

Assays:
SARS2 = assay type: cell-based, SARS-CoV-2; conditions: for Infection Data, Percentage Infection Relative to Appropriate DMSO Control with Avg Background Subtraction: duplicate wells, listed as SICLS61; for Infection Data, Average, Mean (Percentage Infection Relative to Appropriate DMSO Control): average of Exp 1 and Exp 2, n=4; for Percentage Inhibition Average 1 μM / Screening data (Relative infection to DMSO controls) Average 1 μM: SARS2, 1 μM; for Screening data (Relative infection to DMSO controls) Average 1 μM / Screening data (Relative infection to DMSO controls) Average 5 μM / Screening data (Relative infection to DMSO controls) Average 10 μM / Screening data (Relative infection to DMSO controls) Average 25 μM / Screening data (Relative infection to DMSO controls) Average 50 μM / Average (relative infection to DMSO over the 5 tested concentrations): 100=DMSO control; for Percentage Inhibition Average 5 μM / Screening data (Relative infection to DMSO controls) Average 5 μM: SARS2, 5 μM; for Percentage Inhibition Average 10 μM / Screening data (Relative infection to DMSO controls) Average 10 μM: SARS2, 10 μM; for Percentage Inhibition Average 25 μM / Screening data (Relative infection to DMSO controls) Average 25 μM: SARS2, 25 μM; for Percentage Inhibition Average 50 μM / Screening data (Relative infection to DMSO controls) Average 50 μM: SARS2, 50 μM; for Average (relative infection to DMSO over the 5 tested concentrations): SARS2, average over 1 to 50 uM
cells (nuclei count) = conditions: for Toxicity Data, Average, Mean (percentage relative to appropriate DMSO control): average of Exp 1 and Exp 2, n=4; for Relative cell count to DMSO controls, Average 1 μM / Relative cell count to DMSO controls, Average 5 μM / Relative cell count to DMSO controls, Average 10 μM / Relative cell count to DMSO controls, Average 25 μM / Relative cell count to DMSO controls, Average 50 μM: toxicity data, 100=DMSO control; for Relative cell count to DMSO controls, Average (for correlation analysis): average value over the 5 tested concentrations (1 to 50 uM); for Toxicity Data: Average, Mean: average of Exp 1-3 (SMW454, SMW466, SMW480), n 9

Row | Compound | Percentage Inhibition Average 1 μM (SARS2) [%] | Screening data (Relative infection to DMSO controls) Average 1 μM (SARS2) | Percentage Inhibition Average 5 μM (SARS2) [%] | Screening data (Relative infection to DMSO controls) Average 5 μM (SARS2) | Percentage Inhibition Average 10 μM (SARS2) [%] | Screening data (Relative infection to DMSO controls) Average 10 μM (SARS2) | Percentage Inhibition Average 25 μM (SARS2) [%] | Screening data (Relative infection to DMSO controls) Average 25 μM (SARS2) | Percentage Inhibition Average 50 μM (SARS2) [%] | Screening data (Relative infection to DMSO controls) Average 50 μM (SARS2) | Average (relative infection to DMSO over the 5 tested concentrations) (SARS2) | Relative cell count to DMSO controls, Average 1 μM (cells (nuclei count)) | Relative cell count to DMSO controls, Average 5 μM (cells (nuclei count)) | Relative cell count to DMSO controls, Average 10 μM (cells (nuclei count)) | Relative cell count to DMSO controls, Average 25 μM (cells (nuclei count)) | Relative cell count to DMSO controls, Average 50 μM (cells (nuclei count)) | Relative cell count to DMSO controls, Average (for correlation analysis) (cells (nuclei count)) | further results
1 | CC1=C(C(=O)NC2CCCCCC2)C(c2cccs2)NC(=O)N1 (centres unmarked) [SILCS61] | 31.90 | 68.10 | 51.06 | 48.94 | 43.08 | 56.92 | 56.59 | 43.41 | 96.88 | 3.12 | 44.10 | 106.46 | 110.71 | 107.86 | 109.52 | 104.46 | 107.80 | Infection Data, Percentage Infection Relative to Appropriate DMSO Control with Avg Background Subtraction (SARS2; 1 uM, Exp 1 (SMW506)): 73.61% and 82.18%; Infection Data, Percentage Infection Relative to Appropriate DMSO Control with Avg Background Subtraction (SARS2; 1 uM, Exp 2 (SMW492), SILCS 61-66 and 67-72 plates): 57.97% and 58.62%; Infection Data, Average, Mean (Percentage Infection Relative to Appropriate DMSO Control) (SARS2; 1 uM): 68.10%; Infection Data, Percentage Infection Relative to Appropriate DMSO Control with Avg Background Subtraction (SARS2; 5 uM, Exp 1 (SMW506)): 41.43% and 63.29%; Infection Data, Percentage Infection Relative to Appropriate DMSO Control with Avg Background Subtraction (SARS2; 5 uM, Exp 2 (SMW492), SILCS 61-66 and 67-72 plates): 38.94% and 52.11%; Infection Data, Average, Mean (Percentage Infection Relative to Appropriate DMSO Control) (SARS2; 5 uM): 48.94%; Infection Data, Percentage Infection Relative to Appropriate DMSO Control with Avg Background Subtraction (SARS2; 10 uM, Exp 1 (SMW506)): 73.81% and 87.85%; Infection Data, Percentage Infection Relative to Appropriate DMSO Control with Avg Background Subtraction (SARS2; 10 uM, Exp 2 (SMW492), SILCS 61-66 and 67-72 plates): 33.45% and 32.58%; Infection Data, Average, Mean (Percentage Infection Relative to Appropriate DMSO Control) (SARS2; 10 uM): 56.92%; Infection Data, Percentage Infection Relative to Appropriate DMSO Control with Avg Background Subtraction (SARS2; 25 uM, Exp 1 (SMW506)): 51.60% and 90.77%; Infection Data, Average, Mean (Percentage Infection Relative to Appropriate DMSO Control) (SARS2; 25 uM): 43.41%; Infection Data, Percentage Infection Relative to Appropriate DMSO Control with Avg Background Subtraction (SARS2; 50 uM, Exp 1 (SMW506)): −4.48% and −4.80%; Infection Data, Percentage Infection Relative to Appropriate DMSO Control with Avg Background Subtraction (SARS2; 50 uM, Exp 2 (SMW492), SILCS 61-66 and 67-72 plates): 11.69% and 10.06%; Infection Data, Average, Mean (Percentage Infection Relative to Appropriate DMSO Control) (SARS2; 50 uM): 3.12%; Toxicity Data, Average, Mean (percentage relative to appropriate DMSO control) (cells (nuclei count); 1 uM): 106.46%; Toxicity Data, Average, Mean (percentage relative to appropriate DMSO control) (cells (nuclei count); 5 uM): 110.71%; Toxicity Data, Average, Mean (percentage relative to appropriate DMSO control) (cells (nuclei count); 10 uM): 107.86%; Toxicity Data, Average, Mean (percentage relative to appropriate DMSO control) (cells (nuclei count); 25 uM): 109.52%; Toxicity Data, Average, Mean (percentage relative to appropriate DMSO control) (cells (nuclei count); 50 uM): 104.46%
2 | CN(C)CCN(Cc1ccsc1)Cc1ccco1 [SILCS12] | −20.43 | 120.43 | −9.01 | 109.01 | −10.30 | 110.30 | −35.12 | 135.12 | 23.34 | 76.66 | 110.30 | 103.58 | 102.7 | 96.1 | 95.34 | 66.97 | 92.94 | Percentage Infection Relative to DMSO Control, Average, Mean (SARS2): 76.66% and 135.12% and 110.30% and 109.01% and 120.43%; Toxicity Data: Average, Mean (cells (nuclei count); 1 uM): 103.58%; Toxicity Data: Average, Mean (cells (nuclei count); 5 uM): 102.70%; Toxicity Data: Average, Mean (cells (nuclei count); 10 uM): 96.10%; Toxicity Data: Average, Mean (cells (nuclei count); 25 uM): 95.34%; Toxicity Data: Average, Mean (cells (nuclei count); 50 uM): 66.97%
